The source of these data is US4640910A (Abbott Laboratories, priority 1985, dated 1987).

One series deals with Strep. pneumoniae. Kind of series: Extended mouse protection study. The following applies: oral.
The subject of a further series is Strep. pyogenes. Kind of series: Extended mouse protection study. The following applies: oral.
In a further series the test system is Staph. aureus. Kind of series: Extended mouse protection study. The following applies: oral.
In the next series the test system is indicated test organism. Kind of series: Acute mouse protection test. In kind it is in vivo, female, Swiss albino mice. To be noted: 1 and 5 hours post-infection, 7 days, * = highest level tested.
A further series deals with Micrococcus luteus 9341. As to the kind of experiment: Antimicrobial spectrum, agar dilution MIC. To be noted: Micrococcus luteus, 9341. In kind it is cell-based.
A further series concerns Ps. aeruginosa K799/WT. As to the kind of experiment: Antimicrobial spectrum, agar dilution MIC. In kind it is cell-based. To be noted: Pseudomonas aeruginosa, BHI agar, 35°-37° C., 20-24 hours. (In agar dilution the substance is mixed into plates at graded concentrations.)
The test system of another series is Strep. pyogenes 930. Kind of series: Antimicrobial spectrum, agar dilution MIC. In kind it is cell-based. To be noted: Streptococcus pyogenes, BHI agar, 35°-37° C., 20-24 hours.
The test system of the next series is Ps. cepacia 2961. As to the kind of experiment: Antimicrobial spectrum, agar dilution MIC. To be noted: Burkholderia cepacia; Ps. cepacia 2961; BHI agar, 35°-37° C., 20-24 hours; read-out: MIC. The format is cell-based.
A further series deals with Ps. aeruginosa BMH10. As to the kind of experiment: Antimicrobial spectrum, agar dilution MIC. The format is cell-based. To be noted: Pseudomonas aeruginosa; Ps. aeruginosa BMH10; BHI agar, 35°-37° C., 20-24 hours; read-out: MIC.
Series [1] deals with Lactobacillus casei ATCC 7469. Kind of series: Antimicrobial spectrum, agar dilution MIC. The format is cell-based. To be noted: Lacticaseibacillus casei, ATCC7469.
The next series relates to Ps. aeruginosa A5007. As to the kind of experiment: Antimicrobial spectrum, agar dilution MIC. In kind it is cell-based. To be noted: Pseudomonas aeruginosa, BHI agar, 35°-37° C., 20-24 hours.
Series [2] has as its system Enterobact. aerogenes ATCC 13048. Kind of series: Antimicrobial spectrum, agar dilution MIC. In kind it is cell-based. To be noted: Enterobact. aerogenes ATCC 13048; BHI agar, 35°-37° C., 20-24 hours; read-out: MIC.
For a further series, the system named is Staph. aureus A 5177. As to the kind of experiment: Antimicrobial spectrum, agar dilution MIC. To be noted: Staphylococcus aureus, A5177; Staph. aureus A 5177; BHI agar, 35°-37° C., 20-24 hours; read-out: MIC. The format is cell-based.
The subject of series [3] is Providencia stuartii CMX 640. Kind of series: Antimicrobial spectrum, agar dilution MIC. The format is cell-based. The following applies: CMX640; Providencia stuartii CMX 640; BHI agar, 35°-37° C., 20-24 hours; read-out: MIC.
Series [4] is described as follows: Stability and release of drug from prodrug in aqueous buffers pH 2 to 12 (dissolution apparatus, HPLC). In kind it is physicochemical. As to the method:
Samples of 2'-trimethylsilylerythromycin A and 2'-trimethylsilyl-6-O-methylerythromycin A were dissolved in 10-50 ml dimethyl sulfoxide or acetonitrile to give a solution containing 15-75 mg/ml. An aliquot containing 75 mg of prodrug was added to aqueous buffers ranging in pH from 2 to 12 to give a final volume equal to 500 ml. The buffered mixtures were stirred at 37° C. for at least 90 minutes. A standard dissolution test apparatus (Vanderkamp 600, Van-Kel Industries, Inc., 36 Meridian Road, Edisoin, N.J. 08820) was used to provide temperature and stirring rate control.
Aliquots were taken at 15, 30, 45, 60, 90, 120, 180, 240 and 360 minutes for analysis. Each sample was mixed with an internal standard, adjusted rapidly to pH 9 with 1M tricine buffer and extracted immediately with ethyl acetate. The organic extracts were evaporated and redissolved in a solution of 3% tetrahydrofuran in heptane. Samples of these solutions were injected using an autosampler (WISP 71)B, Waters Chromatography, Division of Millipore, 34 Maple Street, Milford, Mass. 01757). The prodrugs and drugs were separated by high performance liquid chromatography, detected at 225 nm using a spectrophotometer (Spectroflow 773 Absorbence Detector, Kratos Analytical Instruments), and were quantified with a digital integrator.

Where [5] appears, read: carboxymethylcellulose with milk (reduces gastric acid secretion).
Setting [6] is: phosphate buffer solution with milk (reduces gastric acid secretion).
[7] abbreviates: Mus musculus, po, 168 h, oral administration, read-out: ED50.
[8] abbreviates: Mus musculus, sc, 168 h, subcutaneous administration, read-out: ED50.
Setting [9] is: Mus musculus, sc, 168 h, subcutaneous administration.
Where [10] appears, read: Mus musculus, po, 168 h, oral administration.

≈ marks a conversion by molar mass, not a printed value. Like-named read-outs stand apart in the source and are kept apart here.

Usually ED50 stands for the dose that gives a 50% effect, or the effect in half of the subjects. Turning to `CC[C@H]1OC(=O)[C@H](C)[C@@H](O[C@H]2C[C@@](C)(OC)[C@@H](O)[C@H](C)O2)[C@H](C)[C@@H](O[C@@H]2O[C@H](C)C[C@H](N(C)C)[C@H]2O)[C@](C)(OC)C[C@@H](C)C(=O)[C@H](C)[C@@H](O)[C@]1(C)O` [6-O-methyl erythromycin A], the ED50 came to 2.4 mg/kg/day in the series on Strep. pneumoniae (carboxymethylcellulose); 2.2 mg/kg/day in the series on Strep. pneumoniae (setting [5]); 1.6 mg/kg/day in the series with Strep. pneumoniae (phosphate buffer solution); 1.6 mg/kg/day with Strep. pneumoniae (setting [6]); 5.3 mg/kg/day with Strep. pyogenes (setting [5]); 5.9 mg/kg/day with Strep. pyogenes (phosphate buffer solution). The ED50 in the series with Strep. pyogenes (setting [6]) came out at 11.1 mg/kg/day; in the series on Staph. aureus (carboxymethylcellulose), 25.0 mg/kg/day; in the series with Staph. aureus (phosphate buffer solution), 27.2 mg/kg/day.

What is called MIC is the smallest concentration in the dilution series that meets the test's criterion for growth inhibition. Regarding `CC[C@H]1OC(=O)[C@H](C)[C@@H](O[C@H]2C[C@@](C)(OC)[C@@H](O)[C@H](C)O2)[C@H](C)[C@@H](O[C@@H]2O[C@H](C)C[C@H](N(C)C)[C@H]2O)[C@](C)(O)C[C@@H](C)C(=O)[C@H](C)[C@@H](O)[C@]1(C)O` [Erythromycin A, reference compound], the ED50 with indicated test organism (setting [7]) turned out to be 75.7 mg/kg; in the series with indicated test organism (setting [8]) it was 10.9 mg/kg; with indicated test organism (oral administration, 10080 min), 48.8 mg/kg/day; in the series with Strep. pyogenes (phosphate buffer solution), 37.2 mg/kg/day; in the series on Staph. aureus (carboxymethylcellulose), 86.0 mg/kg/day; in the series with Staph. aureus (phosphate buffer solution), 75.7 mg/kg/day. Besides, the MIC against Micrococcus luteus 9341 amounted to 0.02 µg/mL (≈ 0.0273 µM); against Ps. aeruginosa K799/WT, 100 µg/mL (≈ 136 µM); in the series on Strep. pyogenes 930, 100 µg/mL (≈ 136 µM); in the series with Ps. cepacia 2961, 100 µg/mL (≈ 136 µM); with Ps. aeruginosa BMH10, 100 µg/mL (≈ 136 µM); in series [1], 0.05 µg/mL (≈ 0.0681 µM). The MIC against Ps. aeruginosa A5007 was found to be 100 µg/mL (≈ 136 µM); in series [2], 100 µg/mL (≈ 136 µM); in the series on Staph. aureus A 5177 it was 0.78 µg/mL (≈ 1.06 µM); in [3], 100 µg/mL (≈ 136 µM).

With `CC[C@H]1OC(=O)[C@H](C)[C@@H](O[C@H]2C[C@@](C)(OC)[C@@H](O)[C@H](C)O2)[C@H](C)[C@@H](O[C@@H]2O[C@H](C)C[C@H](N(C)C)[C@H]2O[Si](C)(C)C)[C@](C)(O)C[C@@H](C)C(=O)[C@H](C)[C@@H](O)[C@]1(C)O` [Example 2, 2'-O-Trimethylsilyl Erythromycin A], the degradation entry in series [4] (pH 2 and 4, 37° C.) is given as “degraded to anhydroerythromycin A”. Further, in [4] (pH 6, 37° C.), the anhydroerythromycin formed result is recorded as “significant amounts” and the “erythromycin A detected” value was “A very small amount”. In addition, the erythromycin formed result in series [4] (pH 8, 10 or 12, 37° C.) is recorded as “No erythromycin was formed”.

Turning to `CC[C@H]1OC(=O)[C@H](C)[C@@H](O[C@H]2C[C@@](C)(OC)[C@@H](O[Si](C)(C)C)[C@H](C)O2)[C@H](C)[C@@H](O[C@@H]2O[C@H](C)C[C@H](N(C)C)[C@H]2O)[C@](C)(O)C[C@@H](C)C(=O)[C@H](C)[C@@H](O)[C@]1(C)O` [Example 8, 4"-O-trimethylsilyl erythromycin A], the ED50 in the series on indicated test organism (setting [7]) was determined as 99.7 mg/kg; in the series with indicated test organism (setting [8]), 16 mg/kg; with indicated test organism (oral administration, listed as 4"-O--TMS Ery A, 10080 min) it was 61.5 mg/kg/day.

`CC[C@H]1OC(=O)[C@H](C)[C@@H](O[C@H]2C[C@@](C)(OC)[C@@H](O[Si](C)(C)C)[C@H](C)O2)[C@H](C)[C@@H](O[C@@H]2O[C@H](C)C[C@H](N(C)C)[C@H]2O)[C@](C)(OC)C[C@@H](C)C(=O)[C@H](C)[C@@H](O[Si](C)(C)C)[C@]1(C)O` [Example 10, 4"-11-bis(O-TMS)-6-O-methyl erythromycin A]: the results for the ED50 in the series on indicated test organism (setting [7]) and in the series with indicated test organism (setting [9]) were 51.8 mg/kg and 40 mg/kg, respectively.

Regarding `CC[C@H]1OC(=O)[C@H](C)[C@@H](O[C@H]2C[C@@](C)(OC)[C@@H](O)[C@H](C)O2)[C@H](C)[C@@H](O[C@@H]2O[C@H](C)C[C@H](N(C)C)[C@H]2O[Si](C)(C)C)[C@](C)(O)C[C@@H](C)C(=NO[Si](C)(C)C)[C@H](C)[C@@H](O)[C@]1(C)O` [Example 11, 2',9-bis(O-trimethylsilyl)-Erythromycin A-9-oxime], the ED50 came to 150 mg/kg in the series on indicated test organism (setting [10]) and 40 mg/kg in the series with indicated test organism (setting [9]).

For the compound `CC[C@H]1OC(=O)[C@H](C)[C@@H](O[C@H]2C[C@@](C)(OC)[C@@H](O[Si](C)(C)C)[C@H](C)O2)[C@H](C)[C@@H](O[C@@H]2O[C@H](C)C[C@H](N(C)C)[C@H]2OC(C)=O)[C@](C)(O)C[C@@H](C)C(=O)[C@H](C)[C@@H](O[Si](C)(C)C)[C@]1(C)O` [Example 12, 2'-Acetyl-4",11-bis (-O-TMS)-Erythromycin A], the results for the ED50 in the series on indicated test organism (setting [10]) and in the series with indicated test organism (setting [9]) were 250 mg/kg and 40 mg/kg, respectively.
